According to a compilation of properties of binary mixtures (doi:10.1016/j.molliq.2022.120536):

Assay: xn = mol fraction of the nth substance listed
Details: 100 kPa

`CC[N+](CC)(CC)CC.O=S(=O)([O-])C(F)(F)F` + CC#N showed an electrical conductivity (293.15 K, x1 = 0.08) of 4.63 S/m, an electrical conductivity (293.15 K, x1 = 0.0997) of 4.72 S/m and an electrical conductivity (293.15 K, x1 = 0.1199) of 4.54 S/m. For the same compound, the electrical conductivity (293.15 K, x1 = 0.1498) was 4.22 S/m, the electrical conductivity (293.15 K, x1 = 0.2) was 3.51 S/m and the electrical conductivity (293.15 K, x1 = 0.25) was 2.89 S/m. The electrical conductivity (293.15 K, x1 = 0.2995) was 2.58 S/m, the electrical conductivity (298.15 K, x1 = 0.02) was 2.66 S/m and the electrical conductivity (298.15 K, x1 = 0.05) was 4.19 S/m. The electrical conductivity (298.15 K, x1 = 0.08) was 4.71 S/m, the electrical conductivity (298.15 K, x1 = 0.1199) was 4.7 S/m and the electrical conductivity (298.15 K, x1 = 0.1498) was 4.38 S/m. The electrical conductivity (298.15 K, x1 = 0.2) was 3.62 S/m, the electrical conductivity (298.15 K, x1 = 0.25) was 3.14 S/m and the electrical conductivity (298.15 K, x1 = 0.2995) was 2.82 S/m. It also gave an electrical conductivity (303.15 K, x1 = 0.02) of 2.77 S/m, an electrical conductivity (303.15 K, x1 = 0.05) of 4.39 S/m and an electrical conductivity (303.15 K, x1 = 0.08) of 4.84 S/m. It also gave an electrical conductivity (303.15 K, x1 = 0.0997) of 5 S/m, an electrical conductivity (303.15 K, x1 = 0.1199) of 4.96 S/m and an electrical conductivity (303.15 K, x1 = 0.1498) of 4.48 S/m. The electrical conductivity (303.15 K, x1 = 0.2) was 3.78 S/m, the electrical conductivity (303.15 K, x1 = 0.25) was 3.39 S/m and the electrical conductivity (303.15 K, x1 = 0.2995) was 3.08 S/m. It also gave an electrical conductivity (308.15 K, x1 = 0.02) of 2.87 S/m, an electrical conductivity (308.15 K, x1 = 0.05) of 4.57 S/m and an electrical conductivity (308.15 K, x1 = 0.08) of 5.08 S/m. The electrical conductivity (308.15 K, x1 = 0.0997) was 5.24 S/m, the electrical conductivity (308.15 K, x1 = 0.1199) was 5.22 S/m and the electrical conductivity (308.15 K, x1 = 0.2) was 4.06 S/m. For the same compound, the electrical conductivity (308.15 K, x1 = 0.25) was 3.65 S/m, the electrical conductivity (308.15 K, x1 = 0.2995) was 3.35 S/m and the electrical conductivity (313.15 K, x1 = 0.02) was 2.97 S/m. For the same compound, the electrical conductivity (313.15 K, x1 = 0.05) was 4.76 S/m, the electrical conductivity (313.15 K, x1 = 0.08) was 5.31 S/m and the electrical conductivity (313.15 K, x1 = 0.0997) was 5.49 S/m. For the same compound, the electrical conductivity (313.15 K, x1 = 0.1199) was 5.48 S/m, the electrical conductivity (313.15 K, x1 = 0.1498) was 5.04 S/m and the electrical conductivity (313.15 K, x1 = 0.2) was 4.34 S/m. For the same compound, the electrical conductivity (313.15 K, x1 = 0.25) was 3.91 S/m, the electrical conductivity (313.15 K, x1 = 0.2995) was 3.62 S/m and the electrical conductivity (318.15 K, x1 = 0.02) was 3.08 S/m. It also gave an electrical conductivity (318.15 K, x1 = 0.08) of 5.54 S/m, an electrical conductivity (318.15 K, x1 = 0.0997) of 5.73 S/m and an electrical conductivity (318.15 K, x1 = 0.1199) of 5.74 S/m. The electrical conductivity (318.15 K, x1 = 0.1498) was 5.32 S/m, the electrical conductivity (318.15 K, x1 = 0.2) was 4.61 S/m and the electrical conductivity (318.15 K, x1 = 0.25) was 4.17 S/m. For the same compound, the electrical conductivity (323.15 K, x1 = 0.02) was 3.18 S/m, the electrical conductivity (323.15 K, x1 = 0.05) was 5.11 S/m and the electrical conductivity (323.15 K, x1 = 0.08) was 5.77 S/m. For the same compound, the electrical conductivity (323.15 K, x1 = 0.0997) was 5.98 S/m, the electrical conductivity (323.15 K, x1 = 0.1199) was 5.99 S/m and the electrical conductivity (323.15 K, x1 = 0.1498) was 5.6 S/m. It also gave an electrical conductivity (323.15 K, x1 = 0.2) of 4.89 S/m, an electrical conductivity (323.15 K, x1 = 0.25) of 4.44 S/m and an electrical conductivity (328.15 K, x1 = 0.02) of 3.28 S/m. For the same compound, the electrical conductivity (328.15 K, x1 = 0.05) was 5.29 S/m, the electrical conductivity (328.15 K, x1 = 0.08) was 6 S/m and the electrical conductivity (328.15 K, x1 = 0.0997) was 6.22 S/m. It also gave an electrical conductivity (328.15 K, x1 = 0.1199) of 6.25 S/m, an electrical conductivity (328.15 K, x1 = 0.1498) of 5.88 S/m and an electrical conductivity (328.15 K, x1 = 0.2) of 5.17 S/m. It also gave an electrical conductivity (328.15 K, x1 = 0.25) of 4.7 S/m, an electrical conductivity (328.15 K, x1 = 0.2995) of 4.44 S/m and an electrical conductivity (333.15 K, x1 = 0.02) of 3.38 S/m. The electrical conductivity (333.15 K, x1 = 0.05) was 5.46 S/m, the electrical conductivity (333.15 K, x1 = 0.08) was 6.23 S/m and the electrical conductivity (333.15 K, x1 = 0.0997) was 6.45 S/m. The electrical conductivity (333.15 K, x1 = 0.1199) was 6.5 S/m, the electrical conductivity (333.15 K, x1 = 0.1498) was 6.15 S/m and the electrical conductivity (338.15 K, x1 = 0.02) was 3.47 S/m. The electrical conductivity (338.15 K, x1 = 0.05) was 5.64 S/m, the electrical conductivity (338.15 K, x1 = 0.08) was 6.45 S/m and the electrical conductivity (338.15 K, x1 = 0.0997) was 6.69 S/m. The electrical conductivity (338.15 K, x1 = 0.1199) was 6.76 S/m, the electrical conductivity (338.15 K, x1 = 0.1498) was 6.42 S/m and the electrical conductivity (338.15 K, x1 = 0.2) was 5.72 S/m. The electrical conductivity (338.15 K, x1 = 0.25) was 5.22 S/m, the electrical conductivity (338.15 K, x1 = 0.2995) was 5.01 S/m and the electrical conductivity (343.15 K, x1 = 0.02) was 3.58 S/m. The electrical conductivity (343.15 K, x1 = 0.05) was 5.81 S/m, the electrical conductivity (343.15 K, x1 = 0.08) was 6.67 S/m and the electrical conductivity (343.15 K, x1 = 0.0997) was 6.92 S/m. For the same compound, the electrical conductivity (343.15 K, x1 = 0.1199) was 7.02 S/m, the electrical conductivity (343.15 K, x1 = 0.1498) was 6.7 S/m and the electrical conductivity (343.15 K, x1 = 0.2) was 6 S/m. The electrical conductivity (343.15 K, x1 = 0.25) was 5.5 S/m, the electrical conductivity (343.15 K, x1 = 0.2995) was 5.28 S/m and the electrical conductivity (348.15 K, x1 = 0.05) was 5.97 S/m. It also gave an electrical conductivity (348.15 K, x1 = 0.0997) of 7.16 S/m, an electrical conductivity (348.15 K, x1 = 0.1199) of 7.27 S/m and an electrical conductivity (348.15 K, x1 = 0.2) of 6.26 S/m. For the same compound, the electrical conductivity (348.15 K, x1 = 0.25) was 5.77 S/m and the electrical conductivity (348.15 K, x1 = 0.2995) was 5.55 S/m.
